Data published in PubChem BioAssay AID1918948 (Molecular Pharmacology Branch, DTP, NCI, 2023).
Several values for one entry are separate records, joined by “and”; a condition that tells them apart may be missing. Identical values can stand only once.

Tested on: K-562 leukemia growth, % test/control
Assay: Anticancer human tumor K-562 cell line growth inhibition;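 note: spheroids exposed to compounds for 7 days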;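 for viability, T/C: 100% = DMSO vehicle wells and lower values mean fewer viable cells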
Conditions: spheroids with HUVEC and MSC; for viability, T/C: stronger effect = lower value
Method in brief: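 Multicellular complex spheroids of tumor cells with human endothelial cells (HUVEC) and mesenchymal stem cells; the LSD1 inhibitor iadademstat was combined with standard-of-care or investigational agents. Top concentration at or near clinical Cmax, half-log dilutions; final DMSO ≤0.25%.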

CC(C)CC(NC(=O)CNC(=O)c1cc(Cl)ccc1Cl)B1OC(=O)CC(CC(=O)O)(C(=O)O)O1 (configuration not stated) + NC1CCC(NC2CC2c2ccccc2)CC1
IC50 (curve of first compound, second compound 0.1 µM): 12.9 nM | IC50 (curve of first compound, second compound 0.316 µM): 12.8 nM | IC50 (curve of first compound, second compound 1 µM): 13.1 nM | IC50 (curve of first compound, second compound 3.16 µM): 13.4 nM | IC50 (curve of first compound, second compound 10 µM): 11.7 nM | viability, T/C (second compound 0.1 µM, first compound 0.000316 µM): 102% | viability, T/C (second compound 0.1 µM, first compound 0.001 µM): 96.6% | viability, T/C (second compound 0.1 µM, first compound 0.00316 µM): 100% | viability, T/C (second compound 0.1 µM, first compound 0.01 µM): 59.5% | viability, T/C (second compound 0.1 µM, first compound 0.0316 µM): 15.6% | viability, T/C (second compound 0.1 µM, first compound 0.1 µM): 6.56% | viability, T/C (second compound 0.316 µM, first compound 0.000316 µM): 99.6% | viability, T/C (second compound 0.316 µM, first compound 0.001 µM): 102% | viability, T/C (second compound 0.316 µM, first compound 0.00316 µM): 102% | viability, T/C (second compound 0.316 µM, first compound 0.01 µM): 58.7% | viability, T/C (second compound 0.316 µM, first compound 0.0316 µM): 16.7% | viability, T/C (second compound 0.316 µM, first compound 0.1 µM): 6.02% | viability, T/C (second compound 1 µM, first compound 0.000316 µM): 104% | viability, T/C (second compound 1 µM, first compound 0.001 µM): 102% | viability, T/C (second compound 1 µM, first compound 0.00316 µM): 102% | viability, T/C (second compound 1 µM, first compound 0.01 µM): 61.5% | viability, T/C (second compound 1 µM, first compound 0.0316 µM): 12.8% | viability, T/C (second compound 1 µM, first compound 0.1 µM): 6.77% | viability, T/C (second compound 3.16 µM, first compound 0.000316 µM): 103% | viability, T/C (second compound 3.16 µM, first compound 0.001 µM): 98.1% | viability, T/C (second compound 3.16 µM, first compound 0.00316 µM): 103% | viability, T/C (second compound 3.16 µM, first compound 0.01 µM): 60.6% | viability, T/C (second compound 3.16 µM, first compound 0.0316 µM): 16.9% | viability, T/C (second compound 3.16 µM, first compound 0.1 µM): 5.71% | viability, T/C (second compound 10 µM, first compound 0.000316 µM): 97.9% | viability, T/C (second compound 10 µM, first compound 0.001 µM): 99.5% | viability, T/C (second compound 10 µM, first compound 0.00316 µM): 96.5% | viability, T/C (second compound 10 µM, first compound 0.01 µM): 54.2% | viability, T/C (second compound 10 µM, first compound 0.0316 µM): 16.9% | viability, T/C (second compound 10 µM, first compound 0.1 µM): 4.71%

COc1cc(C2c3cc4c(cc3C(OC3OC5COC(C)OC5C(O)C3O)C3COC(=O)C23)OCO4)cc(OC)c1O (configuration not stated)
viability, T/C (compound 0.00949 µM): 89.7% and 84.4% | viability, T/C (compound 0.03 µM): 48.8% and 36.5% | viability, T/C (compound 0.0949 µM): 23.6% and 39.6% | viability, T/C (compound 0.3 µM): 41% and 42.6% | viability, T/C (compound 0.949 µM): 34.9% and 9.87% | viability, T/C (compound 3 µM): 8.88% and 1.67% | IC50 (curve of compound): 29 nM and 52.1 nM
